# Test results published in US20260224566A1, “Obicetrapib and Ezetimibe Combination Treatment and Fixed Dose Pharmaceutical Compositions” (NewAmsterdam Pharma B.V., priority 2023, published 2026).
# Where a name gives a salt, the structure may show the parent alone.
# Assays:
# [1] = Kinetic solubility in FeSSIF (pH 5.0) at 37° C.; assay type: physicochemical; conditions: as obicetrapib free acid
# Excerpt: (§1) The amorphous form has a higher kinetic solubility and dissolution rate than the crystalline form (and by extension obicetrapib itself). Both crystalline and amorphous obicetrapib hemicalcium kinetic solubility determinations were made in biorelevant media at different pHs, namely at about 5.0 (FeSSIF conditions) and at pH of about 6.5 (FaSSIF) conditions as set forth in Example 11.28.
# The concentrations in Table W are those of obicetrapib (i.e., the free acid).
# (§2) The solids were magnetically stirred at 600 RPM in a shaker bath and samples were drawn with a 1.0 ml syringe at T=15 mins, 30 mins, 60 mins, 90 mins and 120 mins. The solubility was measured using HPLC method provided by the client. The compound was added to 4.0 ml glass vials at approximately 20.0 mg/ml. Samples were agitated with a vortex mixer for about 5 minutes to ensure the presence of undissolved excess powder. The sample collected at each time point was centrifuged at 1200 RPM, filtered with 0.45 μm Polytetrafluoroethylene (PTFE) filters and diluted with methanol before HPLC analysis. In order to minimize the effect of potential analyte adsorption on the filter, the initial 0.5 mL of supernatant passing through the filter was discarded prior to collecting sample for HPLC analysis.
# [2] = Stability study at 70° C./75% RH, open vial (physical stability by XRPD, chemical purity by HPLC); assay type: physicochemical; conditions: 75% relative humidity
# Excerpt: FIG. 54 is a plot of x-ray powder diffraction pattern taken of crystalline obicetrapib hemicalcium, and FIG. 55 is a plot of x-ray powder diffraction patterns taken of crystalline obicetrapib hemicalcium under stress conditions. In FIG. 55, there are four diffraction patterns shown based on stability study set forth in Example 11.27. Pattern 1 is an x-ray powder diffraction pattern of a sample of amorphous obicetrapib hemicalcium. Pattern 2 is the x-ray powder diffraction pattern of a sample of crystalline obicetrapib hemicalcium. In pattern 3, the sample of crystalline obicetrapib hemicalcium was exposed to 70° C. at 75% relative humidity for one day. […] Pattern 1 was taken before the sample was placed on stability.
# Stability study was conducted on crystalline and amorphous forms of obicetrapib at 70° C./75% relative humidity (RH). The solids were placed into a 4.0 ml glass vial without caps (open condition) and stored at 70° C./75% RH. […] The solids were analyzed by XRPD for physical stability and by HPLC for chemical purity. The sample collected at each time point was dissolved in methanol before HPLC analysis. In order to minimize the effect of potential analyte adsorption on the filter, the initial 0.5 mL of supernatant passing through the filter was discarded prior to collecting sample for HPLC analysis. Purity for each sample was determined based on peak area percent and compared to the sample at T=0.
# [3] = Kinetic solubility in FaSSIF (pH 6.5) at 37° C.; assay type: physicochemical; conditions: as obicetrapib free acid
# Excerpt: as §1
# The concentrations in Table X are those of obicetrapib (i.e., the free acid).
# as §2
# [4] = test system: patients with hypercholesterolemia; conditions: cited from earlier work
# [5] = test system: ApoE*3-Leiden.CETP transgenic mice; experiment: Example 12: plasma lipids, VLDL clearance, LDL receptor, fecal and biliary sterols in ApoE*3-Leiden.CETP mice; assay type: in vivo, mouse
# Excerpt: Obicetrapib is a selective cholesteryl ester transfer protein (CETP) inhibitor currently in clinical development for the treatment of hypercholesterolemia and reduction of cardiovascular risk that strongly reduces Apolipoprotein B (ApoB) and low-density lipoprotein cholesterol (LDL-C) and concomitantly increases plasma high-density lipoprotein cholesterol (HDL-C). Ezetimibe reduces absorption of biliary and dietary cholesterol from the small intestine, thereby reducing LDL-C levels. The current study was carried out to elucidate the mechanism of action responsible for the observed decrease in non-HDL-C by obicetrapib monotherapy and in combination with ezetimibe in a translational mouse model for hyperlipidemia and atherosclerosis.
# (§3) The experimental protocol is illustrated in FIG. 71, with time (t) measured in weeks. Female ApoE*3-Leiden.CETP transgenic mice were fed a Western diet with 0.05% w/w cholesterol (equivalent to daily human intake) with (i) no drug (control), or the same diet containing (ii) obicetrapib alone (2 mg/kg/day), (iii) ezetimibe alone (1 mg/kg/day) or (iv) the combination of obicetrapib and ezetimibe. In the experiment, the effects of the treatments on, amongst other things, plasma blood lipids and fecal bile acids and sterols were determined.
# [6] = test system: participants currently receiving high-intensity statin therapy; experiment: ROSE2 Phase 2b clinical trial: LDL-C and other lipid efficacy endpoints; assay type: in vivo, human; conditions: ROSE2; ezetimibe 10 mg on top of obicetrapib 10 mg
# Method: The primary objective of this study is to evaluate the effect of obicetrapib 10 mg+ezetimibe 10 mg combination therapy compared with placebo, when used as an adjunct to high-intensity statin therapy, on LDL-C at Day 84.
# The secondary objectives of this study include the following, in hierarchical order: • To evaluate the effect of obicetrapib 10 mg monotherapy compared with placebo, when used as an adjunct to high-intensity statin therapy, on LDL-C at Day 84; • To evaluate the effect of obicetrapib 10 mg+ezetimibe 10 mg combination therapy compared with placebo, when used as an adjunct to high-intensity statin therapy, on ApoB at Day 84; and • To evaluate the effect of obicetrapib 10 mg monotherapy compared with placebo, when used as an adjunct to high-intensity statin therapy, on ApoB at Day 84.
# This study will be a placebo-controlled, double-blind, randomized, Phase 2 study to evaluate the efficacy, safety, and tolerability of obicetrapib 10 mg, both in combination with ezetimibe 10 mg and as monotherapy, as an adjunct to high-intensity statin therapy. This study will take place at approximately 20 sites in the United States.
# Up to 2 weeks after the Screening Visit, participants will return to the site on Day 1 (Visit 2) and confirm study eligibility before being randomized and beginning treatment. Approximately 114 eligible participants (38 participants per treatment group) will be randomized in a 1:1:1 ratio to 1 of the following treatment groups: • Combination therapy: Obicetrapib 10 mg+ezetimibe 10 mg (administered as one 10 mg obicetrapib tablet and one 10 mg ezetimibe capsule); • Obicetrapib monotherapy: Obicetrapib 10 mg (administered as one 10 mg obicetrapib tablet and 1 placebo capsule); or. • Placebo (administered as 1 placebo tablet and 1 placebo capsule).
# During the 12-week Treatment Period, the assigned study drugs will be administered by the participants orally with water, once daily on Day 1 to Day 84 at approximately the same time each morning. Participants will return to the site on Day 28 (±2 days), Day 84 (±2 days), and Day 112 (±2 days) for efficacy, safety, and pharmacokinetic (PK) assessments. Participants, Investigators, the Clinical Research Organization (CRO), and the Sponsor will be blinded to all lipid results from Day 1 (Visit 2) for the first participant until all enrolled participants complete the Day 84 (End of Treatment) visit or are withdrawn from the study, in order to protect blinding to treatment assignment.
# The primary efficacy endpoint is the percent change from Day 1 to Day 84 in LDL-C for the obicetrapib 10 mg+ezetimibe 10 mg combination treatment group compared with the placebo group.
# The secondary efficacy endpoints include the following, in hierarchical order: • Percent change from Day 1 to Day 84 in LDL-C for the obicetrapib 10 mg monotherapy. • treatment group compared with the placebo group; • Percent change from Day 1 to Day 84 in ApoB for the obicetrapib 10 mg+ezetimibe 10 mg • combination treatment group compared with the placebo group; and • Percent change from Day 1 to Day 84 in ApoB for the obicetrapib 10 mg monotherapy treatment group compared with the placebo group.
# The exploratory efficacy endpoints include the following: • Percent change from Day 1 to Day 84 in non-HDL-C, VLDL-C, HDL-C, TG, ApoE, Lp(a), and HDL-ApoE for the obicetrapib 10 mg+ezetimibe 10 mg combination treatment group compared with the placebo group and for the obicetrapib 10 mg monotherapy treatment group compared with the placebo group; and • Proportion of participants at Day 84 that achieve LDL-C <2.6 mmol/L (<100 mg/dL), LDL-C <1.8 mmol/L (<70 mg/dL), and LDL-C <1.3 mmol/L (<50 mg/dL) for the obicetrapib 10 mg+ezetimibe 10 mg combination treatment group compared with the placebo group and for the obicetrapib 10 mg monotherapy treatment group compared with the placebo group. […]
# [7] = cited from earlier work
# [8] = test system: ApoE*3-Leiden.CETP transgenic mice; experiment: Example 13: plasma cholesterol and atherosclerosis development in aortic root of ApoE*3-Leiden.CETP mice; assay type: in vivo, mouse
# Method: The current study was carried out to evaluate the effect of obicetrapib monotherapy and a combination of obicetrapib+ezetimibe on atherosclerosis development in a translational mouse model for hyperlipidemia and atherosclerosis.
# as §3, with “82,” for “71,”, “(on average 0.6” for “(1”, “ezetimibe.” for “ezetimibe. In the experiment, the effects of the treatments on, amongst other things, plasma blood lipids and fecal bile acids and sterols were determined.”
# [9] = 15 mins, listed as Amorphous obicetrapib hemicalcium Batch #1
# [10] = 15 mins, listed as Amorphous obicetrapib hemicalcium Batch #2
# [11] = 30 mins, listed as Amorphous obicetrapib hemicalcium Batch #1
# [12] = 30 mins, listed as Amorphous obicetrapib hemicalcium Batch #2
# [13] = 60 mins, listed as Amorphous obicetrapib hemicalcium Batch #1
# [14] = 60 mins, listed as Amorphous obicetrapib hemicalcium Batch #2
# [15] = 90 mins, listed as Amorphous obicetrapib hemicalcium Batch #1
# [16] = 90 mins, listed as Amorphous obicetrapib hemicalcium Batch #2
# [17] = 120 mins, listed as Amorphous obicetrapib hemicalcium Batch #1
# [18] = 120 mins, listed as Amorphous obicetrapib hemicalcium Batch #2
# [19] = obicetrapib 2 mg/kg/day, ezetimibe 1 mg/kg/day in Western diet
# [20] = obicetrapib 2 mg/kg/day, ezetimibe on average 0.6 mg/kg/day in Western diet
smiles,measurement,setting,value
"CCOC(=O)N1c2ccc(C(F)(F)F)cc2[C@@H](N(Cc2cc(C(F)(F)F)cc(C(F)(F)F)c2)c2ncc(OCCCC(=O)O)cn2)C[C@H]1CC [amorphous obicetrapib hemicalcium, amorphous hemicalcium salt of (2R,4S)-4-{[3,5-bis(trifluoromethyl)benzyl]-[5-(3-carboxypropoxy)pyrimidin-2-yl]amino}-2-ethyl-6-trifluoromethyl-3,4-dihydro-2H-quinoline-1-carboxylic acid ethyl ester]",Concentration in Solution,[1]; [9],520 µg/mL
same,Concentration in Solution,[1]; [10],502 µg/mL
same,Concentration in Solution,[1]; [11],661 µg/mL
same,Concentration in Solution,[1]; [12],618 µg/mL
same,Concentration in Solution,[1]; [13],675 µg/mL
same,Concentration in Solution,[1]; [14],628 µg/mL
same,Concentration in Solution,[1]; [15],696 µg/mL
same,Concentration in Solution,[1]; [16],658 µg/mL
same,Concentration in Solution,[1]; [17],675 µg/mL
same,Concentration in Solution,[1]; [18],642 µg/mL
same,physical stability by XRPD,[2]; 7 days,remained amorphous
same,physical stability by XRPD,[2]; 14 days,remained amorphous
same,Concentration in Solution,[3]; [9],60 µg/mL
same,Concentration in Solution,[3]; [10],90 µg/mL
same,Concentration in Solution,[3]; [11],99 µg/mL
same,Concentration in Solution,[3]; [12],140 µg/mL
same,Concentration in Solution,[3]; [13],163 µg/mL
same,Concentration in Solution,[3]; [14],229 µg/mL
same,Concentration in Solution,[3]; [15],201 µg/mL
same,Concentration in Solution,[3]; [16],293 µg/mL
same,Concentration in Solution,[3]; [17],244 µg/mL
same,Concentration in Solution,[3]; [18],387 µg/mL
"CCOC(=O)N1c2ccc(C(F)(F)F)cc2[C@@H](N(Cc2cc(C(F)(F)F)cc(C(F)(F)F)c2)c2ncc(OCCCC(=O)[O-])cn2)C[C@H]1CC.CCOC(=O)N1c2ccc(C(F)(F)F)cc2[C@@H](N(Cc2cc(C(F)(F)F)cc(C(F)(F)F)c2)c2ncc(OCCCC(=O)[O-])cn2)C[C@H]1CC.[Ca+2] [crystalline obicetrapib hemicalcium, reference compound]",physical stability by XRPD,[2]; 7 days,the result remains the same
same,physical stability by XRPD,[2]; one day,near total loss of crystallinity
"O=C1[C@H](CC[C@H](O)c2ccc(F)cc2)[C@@H](c2ccc(O)cc2)N1c1ccc(F)cc1 [ezetimibe, (3R,4S)-1-(4-fluorophenyl)-3-[(3S)-3-(4-fluorophenyl)-3-hydroxypropyl]-4-(4-hydroxyphenyl)azetidin-2-one]",incremental reduction in LDL-C levels in combination with statins,[4]; Catapano et al. 2016,15-20%
same,LDL-C reduction typical with ezetimibe mono-therapy,"[4]; hyperlipidemic patients, Catapano et al. 2016",15-22%
same,"greater reduction in LDL-C, statin and ezetimibe in combination compared with statin alone","[4]; meta-analysis of 27 studies, more than 21,000 patients",15.1%
same,biliary bile acids and biliary bile acid flow,[5]; not shown,did not affect
same,biliary cholesterol flow,[5]; not shown,no significant effects
same,biliary cholesterol levels,[5]; not shown,decreased
same,biliary phospholipids and biliary phospholipid flow,[5]; not shown,did not affect
same,"fecal neutral sterol excretion, change",[5]; [19],+68%
same,"half-life of VLDL-like particles, change",[5]; [19],−23%
same,"non-HDL-C levels, change",[5]; [19],−24%
same,"total plasma cholesterol levels, change",[5]; [19],−23%
same,additional/incremental (median) reduction of LDL-C of ezetimibe added on top of obicetrapib,[6],about 32%
same,solubility in water,[7],practically insoluble
same,HDL-cholesterol,[8]; FIG. 84B,no increase
same,"severe lesions (types IV-V), change","[8]; aortic root, 28 weeks of treatment",−31%
same,"total atherosclerotic lesion size, change","[8]; aortic root, 28 weeks of treatment, versus control",−50%
same,"non-HDL-C levels, change",[8]; [20],−19%
same,"total plasma cholesterol levels, change",[8]; [20],−19%
same,lesion number,"[8]; versus control animals, FIG. 90B",no reduction
